From patent publication US20260184663A1, “INDENE COMPOUNDS, PHARMACEUTICAL COMPOSITIONS THEREOF, AND THEIR THERAPEUTIC APPLICATIONS” (NucMito Pharmaceuticals co. Ltd., priority 2022, published 2026)

Experiments:
Type in all cases: cell-based
[1] = test system: A431 (epidermoid carcinoma); assay: Antiproliferative activity (CCK-8 cell viability), A431; settings: Homo sapiens, 72 h, read-out: Antiproliferative activity in cancerous cells, A431 (inhibition of cell growth); for inhibition at 3.3 µM: A-431, Compound concentration: 3.3 μM; for inhibition at 10 µM: A-431, Compound concentration: 10 μM; for inhibition at 30 µM: A-431, Compound concentration: 30 μM
In short: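 A431 epidermoid carcinoma cells grown in DMEM with 10% FBS were plated at 2,000-5,000 cells/well in 96-well plates. After attachment they were exposed to compound at 3.3 μM, 10 μM, or 30 μM for 72 h at 37° C. Viability was then assessed by CCK-8 against DMSO vehicle-treated wells.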

[2] = test system: HeLa (cervical cancer); assay: Antiproliferative activity (CCK-8 cell viability), HeLa; settings: Homo sapiens, 72 h, read-out: Antiproliferative activity in cancerous cells, HELA (inhibition of cell growth); for inhibition at 3.3 µM: Compound concentration: 3.3 μM; for inhibition at 10 µM: Compound concentration: 10 μM; for inhibition at 30 µM: Compound concentration: 30 μM
In short: (§1)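 Cells grown in DMEM (HepG2, SW480), MEM (HeLa) or F-12K (A549), each with 10% FBS, then exposed to compound at 3.3, 10 or 30 μM for 72 h at 37 °C. CCK-8 absorbance at 450 nm; viability expressed as percent of DMSO-treated cells, graded as growth inhibition bands.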

[3] = test system: HepG2 (liver cancer); assay: Antiproliferative activity (CCK-8 cell viability), HepG2; settings: Homo sapiens, 72 h, read-out: Antiproliferative activity in cancerous cells, HepG2 (inhibition of cell growth); for inhibition at 3.3 µM: Compound concentration: 3.3 μM; for inhibition at 10 µM: Compound concentration: 10 μM; for inhibition at 30 µM: Compound concentration: 30 μM
In short: as §1

[4] = test system: A549 (lung adenocarcinoma); assay: Antiproliferative activity (CCK-8 cell viability), A549; settings: Homo sapiens, 72 h, read-out: Antiproliferative activity in cancerous cells, A549 (inhibition of cell growth); for inhibition at 3.3 µM: Compound concentration: 3.3 μM; for inhibition at 10 µM: Compound concentration: 10 μM; for inhibition at 30 µM: Compound concentration: 30 μM
In short: as §1

[5] = test system: SW480 (colon cancer); assay: Antiproliferative activity (CCK-8 cell viability), SW480; settings: Homo sapiens, 72 h, read-out: Antiproliferative activity in cancerous cells, SW480 (inhibition of cell growth); for inhibition at 3.3 µM: Compound concentration: 3.3 μM; for inhibition at 10 µM: Compound concentration: 10 μM; for inhibition at 30 µM: Compound concentration: 30 μM
In short: as §1

[6] = test system: B16F10 (malignant melanoma); assay: Antiproliferative activity (CCK-8 cell viability), B16F10; settings: Mus musculus, 72 h, read-out: Antiproliferative activity in cancerous cells, B16F10 (inhibition of cell growth); for inhibition at 3.3 µM: B16-F10, Compound concentration: 3.3 μM; for inhibition at 10 µM: B16-F10, Compound concentration: 10 μM; for inhibition at 30 µM: B16-F10, Compound concentration: 30 μM
In short: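 B16F10 melanoma cells grown in DMEM with 10% FBS were plated in 96-well plates at 2,000-5,000 cells/well. After attachment they were exposed to compound in medium for 72 h at 37° C. CCK-8 solution (10 μL) was then added, and after 4 h at 37° C absorbance was read at 450 nm.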

[7] = test system: alpha-smooth muscle actin (α-SMA); assay: Inhibition of TGF-β induced expression of alpha-smooth muscle actin (α-SMA) in CFSC cells (western blot); settings: compound at 10 μM, TGF-β (10 ng/mL), 24 hours, band intensity vs TGF-β only
In short: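 CFSC hepatic stellate cells in serum-free DMEM treated 24 h at 37 °C with compound at 10 μM plus TGF-β (10 ng/mL). α-SMA measured by Western blot with β-actin, ECL detection, densitometry. Percent inhibition is decrease in band intensity versus TGF-β-only cells.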

[8] = test system: MDA-MB-231 (breast cancer); assay: Antiproliferative activity (CCK-8 cell viability), MDA-MB-231; settings: Homo sapiens, 72 h, read-out: Antiproliferative activity in cancerous cells, MDA-MB-231 (inhibition of cell growth); for inhibition at 3.3 µM: Compound concentration: 3.3 μM; for inhibition at 10 µM: Compound concentration: 10 μM; for inhibition at 30 µM: Compound concentration: 30 μM
In short: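 MDA-MB-231 breast cancer cells, grown in DMEM with 10% FBS, were plated in 96-well plates at 2,000-5,000 cells/well. Once attached, they were exposed to compound and incubated at 37° C. for 72 h. Viability was then measured with CCK-8 (10 μL per well, 4 h at 37° C.) by absorbance at 450 nm, relative to DMSO vehicle wells.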

CC1=C(CC(=O)O)c2cc(F)cc(F)c2/C1=C/c1cccc(COc2ccccc2)c1 [E7, (E)-2-(5,7-Difluoro-2-methyl-1-(3-(phenoxymethyl)benzylidene)-1H-inden-3-yl)-acetic acid]
inhibition at 3.3 µM [1]: 30 to 50% | inhibition at 10 µM [1]: ≥ 50% | inhibition at 30 µM [1]: ≥ 50% | inhibition at 3.3 µM [2]: ≥ 50% | inhibition at 10 µM [2]: ≥ 50% | inhibition at 30 µM [2]: ≥ 50% | inhibition at 3.3 µM [3]: 30 to 50% | inhibition at 10 µM [3]: ≥ 50% | inhibition at 30 µM [3]: ≥ 50% | inhibition at 3.3 µM [4]: ≥ 50% | inhibition at 10 µM [4]: ≥ 50% | inhibition at 30 µM [4]: ≥ 50% | inhibition at 3.3 µM [5]: ≥ 50% | inhibition at 10 µM [5]: ≥ 50% | inhibition at 30 µM [5]: ≥ 50% | inhibition at 3.3 µM [6]: < 30% | inhibition at 10 µM [6]: < 30% | inhibition at 30 µM [6]: ≥ 50% | inhibition at 10 µM [7]: > 80% | inhibition at 3.3 µM [8]: < 30% | inhibition at 10 µM [8]: ≥ 50% | inhibition at 30 µM [8]: ≥ 50%

CC1=C(CCC(=O)O)c2ccccc2/C1=C/c1cccc(Oc2ccccc2)c1 [E10, (E)-3-(2-Methyl-1-(3-phenoxybenzylidene)-1H-inden-3-yl)propanoic acid]
inhibition at 3.3 µM [1]: < 30% | inhibition at 10 µM [1]: < 30% | inhibition at 30 µM [1]: < 30% | inhibition at 3.3 µM [2]: < 30% | inhibition at 10 µM [2]: < 30% | inhibition at 30 µM [2]: < 30% | inhibition at 3.3 µM [3]: < 30% | inhibition at 10 µM [3]: < 30% | inhibition at 30 µM [3]: < 30% | inhibition at 3.3 µM [4]: < 30% | inhibition at 10 µM [4]: 30 to 50% | inhibition at 30 µM [4]: ≥ 50% | inhibition at 3.3 µM [5]: < 30% | inhibition at 10 µM [5]: < 30% | inhibition at 30 µM [5]: 30 to 50% | inhibition at 3.3 µM [6]: < 30% | inhibition at 10 µM [6]: < 30% | inhibition at 30 µM [6]: 30 to 50% | inhibition at 10 µM [7]: < 30% | inhibition at 3.3 µM [8]: < 30% | inhibition at 10 µM [8]: < 30% | inhibition at 30 µM [8]: ≥ 50%

CC1=C(CC(=O)O)c2c(F)ccc(F)c2/C1=C/c1ccc(C(C)C)cc1 [E12, (E)-2-(4,7-Difluoro-1-(4-isopropylbenzylidene)-2-methyl-1H-inden-3-yl)acetic acid]
inhibition at 3.3 µM [1]: < 30% | inhibition at 10 µM [1]: 30 to 50% | inhibition at 30 µM [1]: ≥ 50% | inhibition at 3.3 µM [2]: < 30% | inhibition at 10 µM [2]: 30 to 50% | inhibition at 30 µM [2]: ≥ 50% | inhibition at 3.3 µM [3]: < 30% | inhibition at 10 µM [3]: < 30% | inhibition at 30 µM [3]: 30 to 50% | inhibition at 3.3 µM [4]: < 30% | inhibition at 10 µM [4]: 30 to 50% | inhibition at 30 µM [4]: ≥ 50% | inhibition at 3.3 µM [5]: < 30% | inhibition at 10 µM [5]: 30 to 50% | inhibition at 30 µM [5]: ≥ 50% | inhibition at 3.3 µM [6]: 30 to 50% | inhibition at 10 µM [6]: ≥ 50% | inhibition at 30 µM [6]: ≥ 50% | inhibition at 10 µM [7]: < 30% | inhibition at 3.3 µM [8]: ≥ 50% | inhibition at 10 µM [8]: ≥ 50% | inhibition at 30 µM [8]: ≥ 50%
